From US20080004282A1, “Compositions and methods for modulating gated ion channels” (PainCeptor Pharma Corporation, priority 2006, published 2008)
Like-named read-outs stand apart in the source and are kept apart here.

Legend:
[1] = target: T1, ASIC1a (Homo sapiens, UniProt P78348); assay: Whole cell patch clamp in HEK293 cells transfected with hASIC1a; assay type: cell-based; design: expressed in transfected cells; host or cells: Xenopus laevis oocytes, nuclear microinjection of an expression vector such as pCDNA3
T1 sequence (P78348 1-528): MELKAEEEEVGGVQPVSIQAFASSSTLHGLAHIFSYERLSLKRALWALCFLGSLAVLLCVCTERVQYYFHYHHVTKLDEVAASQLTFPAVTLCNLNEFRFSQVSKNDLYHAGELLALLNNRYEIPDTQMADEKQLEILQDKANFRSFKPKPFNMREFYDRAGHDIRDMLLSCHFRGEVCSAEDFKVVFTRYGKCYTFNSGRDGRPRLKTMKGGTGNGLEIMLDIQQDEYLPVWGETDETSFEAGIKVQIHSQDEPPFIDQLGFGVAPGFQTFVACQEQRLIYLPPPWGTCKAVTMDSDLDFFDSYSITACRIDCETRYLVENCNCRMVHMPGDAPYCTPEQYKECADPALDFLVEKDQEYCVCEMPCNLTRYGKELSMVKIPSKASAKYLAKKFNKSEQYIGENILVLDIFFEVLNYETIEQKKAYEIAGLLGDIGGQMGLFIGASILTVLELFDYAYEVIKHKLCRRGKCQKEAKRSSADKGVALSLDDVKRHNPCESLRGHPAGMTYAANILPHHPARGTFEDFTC
Text: Screening and Bioanalysis of ASIC Antagonists in Heterologous Expression Systems
This example describes another in vitro assessment of the activity of the compounds of the present invention.
Another example of an in vitro assessment method consists of using mammalian heterologous expression systems, which are known to the skilled in the art, and include a variety of mammalian cell lines such as COS, HEK, e.g., HEK293 and/or CHO, cells. Cell lines are transfected with gated ion channel(s) and used to perform electrophysiology as follows:
All experiments are performed at room temperature (20-25° C.) in voltage clamp using conventional whole cell patch clamp methods (Neher, E., et al. (1978) Pfluegers Arch 375:219-228). […]
Coverslips with the cells are transferred to a 15 μl experimental chamber mounted on the stage of an inverted microscope (IMT-2, Olympus) supplied with Nomarski optics. […] The cells are held at a holding voltage of −60 mV and at the start of each experiment the current is continuously measured for 45 s to ensure a stable baseline. […] Current amplitudes are measured at the peak of the responses, and effect of the compounds is calculated as the amplitude at compound equilibrium divided by the amplitude of the current evoked by the pulse just before the compound is included. […]

[2] = system: thermal hyperalgesia from carrageenan-induced acute paw inflammation; assay: Carrageenan model, thermal hyperalgesia (Hargreaves' assay); assay type: in vivo; conditions: rat, 20 mg/kg s.c. 30 min prior to carrageenan, 2-3 hours post-carrageenan
Protocol: Carrageenan Model for Pain
Acute inflammatory hyperalgesia is induced in rats by unilateral injection of […] of a 3% solution of 1-carrageenan into the plantar surface of the left hind paw 2-4 h prior to testing. Thermal nociceptive thresholds are determined according to the method described elsewhere (Hargreaves et al., 1988). Briefly, through the glass surface, a radiant heat source (8 V, 50 W projector bulb) is focused onto the plantar surface of the hind paw. The rat's paw-withdrawal latency to this stimulus is recorded to the nearest 0.1 s. Each latency score is an average of three trials, which are separated by at least 5 min. In all rats, both the injured and uninjured hind paws are similarly tested, allowing direct comparisons between inflamed and non-inflamed paws.
FIG. 7 illustrates the effect of Compound 44 (20 mg/kg s.c.) on the thermal hyperalgesia (observed in the Hargreaves' assay) resulting from an acute paw inflammation caused by the intraplantar injection of 150 μl of a 3% solution of λ-carrageenan. Compound 44 was given 30 min prior to carrageenan injection and thermal hyperalgesia was tested 2, 3, and 4 h post carrageenan injection.

Row | SMILES | IC50 ([1]; HEK293 cells, whole cell patch clamp, six point dose-response, read-out: IC50, inhibition of acid-induced hASIC1a activity) [µM] | effect on thermal hyperalgesia [2] | IC50 [1] [µM]
1 | CCN1CCc2c(-c3ccccc3)cc(C#N)c(N)c2C1 [Compound 12, 8-Amino-2-ethyl-5-phenyl-1,2,3,4-tetrahydro-isoquinoline-7-carbonitrile] | 4 |  | 
2 | CCN1CCc2c(-c3cc(Cl)ccc3OC)cc(C#N)c(N)c2C1 [Compound 44] |  | completely reversed | 5.1
